Data as given in patent publication US11932595B2, “VDR-silent vitamin D derivative as inhibitors of SREBP and pharmaceutical use thereof” (KYOTO UNIVERSITY, priority 2020, dated 2024).

System: ob/ob mice
Assay: Long-term in vivo model of fatty liver in ob/ob mice
Procedure: C57BL/6 and oh/oh mice were purchased from CLEA Japan and Charles River Japan, Inc., respectively. Animal experiments were carried out at the University of Tokyo and Charles River Laboratories. Low fat, high carbohydrate diet, lacking vitamin D was custom made by Research Diets, Inc. Compounds disclosed herein and 25(OH)D3 were dissolved in ethanol/Tween 20 (9:1) to obtain stock solution and then diluted 10-fold with PBS immediately before administration to mice.
Following sacrifice, mouse livers were fixed in 10% neutral-buffered formalin, embedded in paraffin, sectioned, and stained with H&E. Hepatic lipids were extracted with chloroform/methanol (2:1 v/v), and TG and cholesterol contents were measured with Triglyceride Reagent Set (Pointe Scientific) and Cholesterol E (Wako), respectively. Serum levels of ALT, TG, glucose, cholesterol, and calcium were measured in SRL Inc. (Tokyo). All experiments were approved by the Ethics Committee for Animal Experimentation of the University of Tokyo and Charles River Laboratories Japan, and were conducted in accordance with the Guidelines for the Care and Use of Laboratory Animals.
Six-week-old ob/ob mice were treated with 10 mg/kg KK-052, 10 mg/kg 25(OH)D3, or vehicle control 5 times per week for 4 weeks (FIG. 7A).
Body weights of ob/ob mice were measured and data are given as means±SEM (25(OH)D3, n=5; others, n=8), *p<0.05 (FIG. 7B).
Hepatic TG and cholesterol contents were measured in KK-052- or vehicle-treated ob/ob mice (means±SEM), *p<0.05 (FIG. 7D).
Serum levels of ALT, TG, total cholesterol, glucose, and calcium were measured in KK-052- or vehicle-treated ob/ob mice (means±SEM), *p<0.05 (FIG. 7E).

[1] = 10 mg/kg 5 times per week for 4 weeks
[2] = ob/ob mice, versus vehicle, FIG. 7D

| SMILES | general condition of treated ob/ob mice [1] | weight gain (ob/ob mice, 10 mg/kg 5 times per week for 4 weeks, FIG. 7B) | liver steatosis (H&E histology) (ob/ob mice, 10 mg/kg, 4 weeks, FIG. 7C) | serum calcium levels versus vehicle-treated group (ob/ob mice, 10 mg/kg, 4 weeks, FIG. 7E) | serum level of TG (ob/ob mice, FIG. 7E) | serum level of alanine aminotransferase (ALT) (ob/ob mice, FIG. 7E) | serum level of glucose (ob/ob mice, FIG. 7E) | hepatic cholesterol content [2] | hepatic triglyceride (TG) content [2] |
| --- | --- | --- | --- | --- | --- | --- | --- | --- | --- |
| C=C1CC[C@H](O)C/C1=C/C=C1\CCC[C@]2(C)[C@@H]([C@H](C)CCCC(C)(C)O)CC[C@@H]12 [25(OH)D3, 25-hydroxyvitamin D3, reference compound] | became sick due to hypercalcemia and euthanized at 1 week |  |  |  |  |  |  |  |  |
| C[C@H](CCC(F)(F)C(C)(C)O)[C@H]1CC[C@H]2/C(=C/Cn3nnnc3-c3ccccc3)CCC[C@]12C [Compound 50, (R)-3,3-Difluoro-2-methyl-6-{(1R,3aS,7aR,E)-7a-methyl-4-[2-(5-phenyl-1H-tetrazol-1-yl)ethylidene]octahydro-1H-inden-1-yl}heptan-2-ol] | appeared healthy until the end of the experiments | slightly but significantly decreased | attenuated | no detectable difference | significantly decreased | significantly decreased | significantly decreased | significantly decreased | significantly decreased |
